# Laboratory results as given in PubChem BioAssay (NCI).
#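 Briefly, cells in 96-well plates were exposed to five compound concentrations for 48 h, and endpoints were estimated by linear interpolation. GI50 marks 50% less growth. TGI marks complete inhibition of growth.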
# Assays:
# Test in all cases: NCI-60 cell line screen, 48 h
# 786-0 renal = system: 786-0 renal
# A498 renal = system: A498 renal
# A549 NSCLC = system: A549 NSCLC
# ACHN renal = system: ACHN renal
# BT-549 breast = system: BT-549 breast
# CAKI-1 renal = system: CAKI-1 renal
# CCRF-CEM leukemia = system: CCRF-CEM leukemia
# COLO 205 colon = system: COLO 205 colon
# DU-145 prostate = system: DU-145 prostate
# EKVX NSCLC = system: EKVX NSCLC
# HCC-2998 colon = system: HCC-2998 colon
# HCT-116 colon = system: HCT-116 colon
# HCT-15 colon = system: HCT-15 colon
# HL-60(TB) leukemia = system: HL-60(TB) leukemia
# HOP-62 NSCLC = system: HOP-62 NSCLC
# HOP-92 NSCLC = system: HOP-92 NSCLC
# HS 578T breast = system: HS 578T breast
# HT29 colon = system: HT29 colon
# K-562 leukemia = system: K-562 leukemia
# KM12 colon = system: KM12 colon
# LOX IMVI melanoma = system: LOX IMVI melanoma
# M14 melanoma = system: M14 melanoma
# MALME-3M melanoma = system: MALME-3M melanoma
# MCF7 breast = system: MCF7 breast
# MDA-MB-231 breast = system: MDA-MB-231 breast
# MDA-MB-435 = system: MDA-MB-435
# MOLT-4 leukemia = system: MOLT-4 leukemia
# NCI-H226 lung = system: NCI-H226 lung
# NCI-H23 lung = system: NCI-H23 lung
# NCI-H460 lung = system: NCI-H460 lung
# NCI-H522 lung = system: NCI-H522 lung
# NCI/ADR-RES ovarian = system: NCI/ADR-RES ovarian
# OVCAR-3 ovarian = system: OVCAR-3 ovarian
# OVCAR-4 ovarian = system: OVCAR-4 ovarian
# OVCAR-5 ovarian = system: OVCAR-5 ovarian
# OVCAR-8 ovarian = system: OVCAR-8 ovarian
# PC-3 prostate = system: PC-3 prostate
# RPMI-8226 leukemia = system: RPMI-8226 leukemia
# RXF 393 renal = system: RXF 393 renal
# SF-268 CNS = system: SF-268 CNS
# SF-295 CNS = system: SF-295 CNS
# SF-539 CNS = system: SF-539 CNS
# SK-MEL-2 melanoma = system: SK-MEL-2 melanoma
# SK-MEL-28 melanoma = system: SK-MEL-28 melanoma
# SK-MEL-5 melanoma = system: SK-MEL-5 melanoma
# SK-OV-3 ovarian = system: SK-OV-3 ovarian
# SN12C renal = system: SN12C renal
# SNB-19 CNS = system: SNB-19 CNS
# SNB-75 CNS = system: SNB-75 CNS
# SR leukemia = system: SR leukemia
# SW-620 colon = system: SW-620 colon
# T-47D breast = system: T-47D breast
# TK-10 renal = system: TK-10 renal
# U251 CNS = system: U251 CNS
# UACC-257 melanoma = system: UACC-257 melanoma
# UACC-62 melanoma = system: UACC-62 melanoma
# UO-31 renal = system: UO-31 renal
structure (smiles),measurement,setting,value
COc1cc2c3c(n(CCCN)c(=O)c2cc1OC)-c1ccc([N+](=O)[O-])cc1C3=O,GI50,786-0 renal,1.66 µM
same,TGI,786-0 renal,3.55 µM
same,GI50,A498 renal,17.4 µM
same,TGI,A498 renal,34.1 µM
same,GI50,A549 NSCLC,9.88 µM
same,TGI,A549 NSCLC,34.7 µM
same,GI50,ACHN renal,5.2 µM
same,TGI,ACHN renal,16.7 µM
same,GI50,BT-549 breast,13.4 µM
same,TGI,BT-549 breast,28 µM
same,GI50,CAKI-1 renal,4.7 µM
same,TGI,CAKI-1 renal,19.4 µM
same,GI50,CCRF-CEM leukemia,0.15 µM
same,TGI,CCRF-CEM leukemia,2.73 µM
same,GI50,COLO 205 colon,10.1 µM
same,TGI,COLO 205 colon,22.8 µM
same,GI50,DU-145 prostate,2.11 µM
same,TGI,DU-145 prostate,10.6 µM
same,GI50,EKVX NSCLC,20 µM
same,TGI,EKVX NSCLC,40.7 µM
same,GI50,HCC-2998 colon,2.29 µM
same,TGI,HCC-2998 colon,13.6 µM
same,GI50,HCT-116 colon,1.32 µM
same,TGI,HCT-116 colon,2.74 µM
same,GI50,HCT-15 colon,5.83 µM
same,TGI,HCT-15 colon,19 µM
same,GI50,HL-60(TB) leukemia,17.8 µM
same,TGI,HL-60(TB) leukemia,37.8 µM
same,GI50,HOP-62 NSCLC,0.613 µM
same,TGI,HOP-62 NSCLC,2.26 µM
same,GI50,HOP-92 NSCLC,10.5 µM
same,TGI,HOP-92 NSCLC,30.5 µM
same,GI50,HS 578T breast,22.5 µM
same,TGI,HS 578T breast,46.1 µM
same,GI50,HT29 colon,5.07 µM
same,TGI,HT29 colon,21.4 µM
same,GI50,K-562 leukemia,5.57 µM
same,TGI,K-562 leukemia,31.3 µM
same,GI50,KM12 colon,14.6 µM
same,TGI,KM12 colon,31 µM
same,GI50,LOX IMVI melanoma,2.28 µM
same,TGI,LOX IMVI melanoma,16.6 µM
same,GI50,M14 melanoma,5.77 µM
same,TGI,M14 melanoma,19.4 µM
same,GI50,MALME-3M melanoma,16.7 µM
same,TGI,MALME-3M melanoma,40.5 µM
same,GI50,MCF7 breast,0.317 µM
same,TGI,MCF7 breast,1.96 µM
same,GI50,MDA-MB-231 breast,18.9 µM
same,TGI,MDA-MB-231 breast,34.6 µM
same,GI50,MDA-MB-435,15.9 µM
same,TGI,MDA-MB-435,37.5 µM
same,GI50,MOLT-4 leukemia,0.434 µM
same,TGI,MOLT-4 leukemia,16.2 µM
same,GI50,NCI-H226 lung,17.4 µM
same,TGI,NCI-H226 lung,38.3 µM
same,GI50,NCI-H23 lung,5.13 µM
same,TGI,NCI-H23 lung,25.1 µM
same,GI50,NCI-H460 lung,0.572 µM
same,TGI,NCI-H460 lung,2.35 µM
same,GI50,NCI-H522 lung,0.489 µM
same,TGI,NCI-H522 lung,10.8 µM
same,GI50,NCI/ADR-RES ovarian,14 µM
same,TGI,NCI/ADR-RES ovarian,> 100 µM
same,GI50,OVCAR-3 ovarian,16.5 µM
same,TGI,OVCAR-3 ovarian,37.5 µM
same,GI50,OVCAR-4 ovarian,11.5 µM
same,TGI,OVCAR-4 ovarian,33.7 µM
same,GI50,OVCAR-5 ovarian,15.9 µM
same,TGI,OVCAR-5 ovarian,30.7 µM
same,GI50,OVCAR-8 ovarian,2 µM
same,TGI,OVCAR-8 ovarian,5.41 µM
same,GI50,PC-3 prostate,7.63 µM
same,TGI,PC-3 prostate,22.9 µM
same,GI50,RPMI-8226 leukemia,1.75 µM
same,TGI,RPMI-8226 leukemia,4.91 µM
same,GI50,RXF 393 renal,19.2 µM
same,TGI,RXF 393 renal,43.7 µM
same,GI50,SF-268 CNS,7.74 µM
same,TGI,SF-268 CNS,24.4 µM
same,GI50,SF-295 CNS,0.912 µM
same,TGI,SF-295 CNS,17.9 µM
same,GI50,SF-539 CNS,3.76 µM
same,TGI,SF-539 CNS,14.9 µM
same,GI50,SK-MEL-2 melanoma,0.0173 µM
same,TGI,SK-MEL-2 melanoma,5.19 µM
same,GI50,SK-MEL-28 melanoma,17.8 µM
same,TGI,SK-MEL-28 melanoma,34.3 µM
same,GI50,SK-MEL-5 melanoma,5.23 µM
same,TGI,SK-MEL-5 melanoma,19.5 µM
same,GI50,SK-OV-3 ovarian,12.2 µM
same,TGI,SK-OV-3 ovarian,28.7 µM
same,GI50,SN12C renal,11.7 µM
same,TGI,SN12C renal,27.6 µM
same,GI50,SNB-19 CNS,3.11 µM
same,TGI,SNB-19 CNS,18.3 µM
same,GI50,SNB-75 CNS,16.3 µM
same,TGI,SNB-75 CNS,34.7 µM
same,GI50,SR leukemia,0.0731 µM
same,TGI,SR leukemia,10.4 µM
same,GI50,SW-620 colon,2.12 µM
same,TGI,SW-620 colon,19.1 µM
same,GI50,T-47D breast,3.86 µM
same,TGI,T-47D breast,20.2 µM
same,GI50,TK-10 renal,20.7 µM
same,TGI,TK-10 renal,41.4 µM
same,GI50,U251 CNS,4.94 µM
same,TGI,U251 CNS,19.8 µM
same,GI50,UACC-257 melanoma,31 µM
same,TGI,UACC-257 melanoma,> 100 µM
same,GI50,UACC-62 melanoma,11.5 µM
same,TGI,UACC-62 melanoma,25.1 µM
same,GI50,UO-31 renal,0.222 µM
same,TGI,UO-31 renal,6.22 µM
